Experimental data taken from ChEMBL document CHEMBL4190324 (Eur J Med Chem, 2017).

How the values were obtained:
[1] = Cytotoxicity against HEK293 cells assessed as cell viability up to 100 uM after 24 hrs by MTT assay relative to control; type: cell-based; conditions: human, read-out: Activity
Acetylcholinesterase = Acetylcholinesterase (Electrophorus electricus, UniProt O42275); assay: Inhibition of electric eel AChE using acetylthiocholine as substrate preincubated for 20 mins followed by substrate addition measured every 2 mins for 20 mins by Ellman's method
Sequence of Acetylcholinesterase (O42275 whole entry): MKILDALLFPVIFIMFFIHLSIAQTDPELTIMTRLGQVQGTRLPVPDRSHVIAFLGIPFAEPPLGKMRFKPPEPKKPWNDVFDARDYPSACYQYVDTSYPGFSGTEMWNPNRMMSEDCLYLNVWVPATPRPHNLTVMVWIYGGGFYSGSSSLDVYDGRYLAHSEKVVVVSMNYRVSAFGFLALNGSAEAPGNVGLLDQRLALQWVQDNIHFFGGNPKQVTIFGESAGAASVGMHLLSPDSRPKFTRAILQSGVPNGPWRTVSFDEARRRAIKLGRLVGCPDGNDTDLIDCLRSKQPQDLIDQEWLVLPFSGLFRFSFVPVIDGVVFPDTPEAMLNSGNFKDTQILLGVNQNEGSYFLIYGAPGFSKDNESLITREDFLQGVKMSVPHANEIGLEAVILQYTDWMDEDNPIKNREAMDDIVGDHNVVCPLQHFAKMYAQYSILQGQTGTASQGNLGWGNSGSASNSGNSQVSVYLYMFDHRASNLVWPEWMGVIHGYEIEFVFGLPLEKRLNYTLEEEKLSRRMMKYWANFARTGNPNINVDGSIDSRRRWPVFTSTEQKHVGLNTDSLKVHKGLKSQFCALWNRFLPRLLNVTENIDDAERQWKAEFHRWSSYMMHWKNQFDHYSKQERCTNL

Cholinesterase = Cholinesterase (Equus caballus, UniProt P81908)
Sequence of Cholinesterase (P81908 whole entry): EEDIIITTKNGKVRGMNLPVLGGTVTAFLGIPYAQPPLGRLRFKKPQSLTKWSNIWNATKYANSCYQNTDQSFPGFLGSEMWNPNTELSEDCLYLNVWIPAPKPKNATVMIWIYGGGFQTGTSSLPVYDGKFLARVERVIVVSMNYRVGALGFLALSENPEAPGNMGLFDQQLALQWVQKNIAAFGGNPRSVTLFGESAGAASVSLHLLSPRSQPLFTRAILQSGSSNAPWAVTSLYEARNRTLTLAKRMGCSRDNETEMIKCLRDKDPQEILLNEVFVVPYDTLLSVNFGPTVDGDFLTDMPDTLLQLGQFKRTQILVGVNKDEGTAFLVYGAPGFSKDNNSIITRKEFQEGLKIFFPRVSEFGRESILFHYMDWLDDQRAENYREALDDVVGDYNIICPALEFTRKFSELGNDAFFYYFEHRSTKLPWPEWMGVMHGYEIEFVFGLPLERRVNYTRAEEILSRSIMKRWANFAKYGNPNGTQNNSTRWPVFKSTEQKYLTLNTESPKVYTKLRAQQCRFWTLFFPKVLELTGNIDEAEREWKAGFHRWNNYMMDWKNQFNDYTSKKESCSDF
Description: Inhibition of equine serum BChE using butyrylthiocholine as substrate preincubated for 20 mins followed by substrate addition measured every 2 mins for 20 mins by Ellman's method

HEK293 [2] = assay: Cytotoxicity against HEK293 cells at > 50 uM after 24 hrs by MTT assay; type: cell-based; conditions: human, hek293, 24 h
[3] = Hepatotoxicity against human HepG2 cells assessed as reduction in cell viability at 50 uM after 24 hrs by MTT assay; type: toxicity, cell-based; conditions: hepg2, 24 h
HEK293 [4] = assay: Cytotoxicity against HEK293 cells at 0.1 to 300 uM after 24 hrs by MTT assay; type: cell-based; conditions: human, hek293, 24 h
[5] = Hepatotoxicity against human HepG2 cells assessed as reduction in cell viability at 10 to 300 uM after 72 hrs by MTT assay; type: toxicity, cell-based; conditions: hepg2, 72 h
[6] = Hepatotoxicity against human HepG2 cells assessed as reduction in cell viability at 300 uM after 24 hrs by MTT assay; type: toxicity, cell-based; conditions: hepg2, 24 h

| Compound | viability at 24 h [1] [%] | IC50 (Acetylcholinesterase) [nM] | IC50 (Cholinesterase) [nM] | Activity (HEK293 [2]) | Activity [3] | Activity (HEK293 [4]) | Activity [5] | Activity [6] |
| --- | --- | --- | --- | --- | --- | --- | --- | --- |
| Cn1nccc1NC(=O)C1CCc2nc3cc(Br)ccc3c(N)c2C1 (configuration not stated) | > 80 | 17.7 | 20900 |  |  |  |  |  |
| Nc1c2c(nc3cc(Br)ccc13)CCC(C(=O)NCCCc1ccccc1)C2 (configuration not stated) |  | 7.14 | 5110 | Toxic | Toxic |  |  |  |
| Cn1cc(-c2ccc3c(N)c4c(nc3c2)CCC(C(=O)NCCc2ccccc2)C4)cn1 (configuration not stated) |  | 189 | 10600 | Toxic |  |  |  |  |
| Nc1c2c(nc3cc(Br)ccc13)CCC(C(=O)NCCc1ccccc1)C2 (configuration not stated) |  | 24.1 | 7170 | Toxic | Toxic |  |  |  |
| NNC(=O)C1CCc2nc3ccccc3c(N)c2C1 (configuration not stated) |  | 13 |  |  |  | Non-Toxic | Non-Toxic | Non-Toxic |
| Nc1c2c(nc3cc(Br)ccc13)CCC(C(=O)NCc1ccccc1)C2 (configuration not stated) | > 80 | 33.7 | 10200 | Toxic |  |  |  |  |
| Nc1c2c(nc3ccccc13)CCC(C(=O)NCCc1ccccc1)C2 (configuration not stated) |  | 16.8 | 4050 | Toxic | Toxic |  |  |  |
| CNC(=O)C1CCc2nc3cc(Br)ccc3c(N)c2C1 (configuration not stated) | > 80 | 28.6 |  |  | Toxic |  |  |  |
| Nc1c2c(nc3ccccc13)CCC(C(=O)NCc1ccccc1)C2 (configuration not stated) |  | 37.2 | 10800 |  |  |  |  |  |
| Cn1cc(-c2ccc3c(N)c4c(nc3c2)CCC(C(=O)NCCCc2ccccc2)C4)cn1 (configuration not stated) |  | 57.6 | 2770 |  |  |  |  |  |
| Nc1c2c(nc3ccccc13)CCC(C(=O)NCCCc1ccccc1)C2 (configuration not stated) |  | 5.17 | 3680 | Toxic | Toxic |  |  |  |
| Nc1c2c(nc3cc(-c4cncnc4)ccc13)CCC(C(=O)NCCCc1ccccc1)C2 (configuration not stated) |  | 40.8 | 18000 | Toxic |  |  |  |  |
| Cn1cc(-c2ccc3c(N)c4c(nc3c2)CCC(C(=O)NCc2ccccc2)C4)cn1 (configuration not stated) |  | 191 | 2260 |  |  |  |  |  |
